Reference: patent publication US9200046B2, “Reporter system for high throughput screening of compounds and uses thereof” (priority 2011, dated 2015)
Where two headings read alike, the source gives them in different places.

Biological target: Nrf2-Keap1 complex (Homo sapiens, UniProt Q14145)
Test: cell-based
Format: cell-based
Conditions: for activation at 16 µM / activation at 32 µM: 3 h; for activation at 16 µM: read-out: Activation 100 nL; for activation at 32 µM: read-out: Activation 200 nL
[1] = Table 2, 100 nL compound, screen run at 16 and 32 μM, 3 hr
[2] = Table 2, 200 nL compound, screen run at 16 and 32 μM, 3 hr
[3] = Table 1A, 100 nL compound, screen run at 16 and 32 μM, 3 hr
[4] = Table 1A, 200 nL compound, screen run at 16 and 32 μM, 3 hr

Nrf2-Keap1 complex, sequence (Q14145 whole entry, one chain of several): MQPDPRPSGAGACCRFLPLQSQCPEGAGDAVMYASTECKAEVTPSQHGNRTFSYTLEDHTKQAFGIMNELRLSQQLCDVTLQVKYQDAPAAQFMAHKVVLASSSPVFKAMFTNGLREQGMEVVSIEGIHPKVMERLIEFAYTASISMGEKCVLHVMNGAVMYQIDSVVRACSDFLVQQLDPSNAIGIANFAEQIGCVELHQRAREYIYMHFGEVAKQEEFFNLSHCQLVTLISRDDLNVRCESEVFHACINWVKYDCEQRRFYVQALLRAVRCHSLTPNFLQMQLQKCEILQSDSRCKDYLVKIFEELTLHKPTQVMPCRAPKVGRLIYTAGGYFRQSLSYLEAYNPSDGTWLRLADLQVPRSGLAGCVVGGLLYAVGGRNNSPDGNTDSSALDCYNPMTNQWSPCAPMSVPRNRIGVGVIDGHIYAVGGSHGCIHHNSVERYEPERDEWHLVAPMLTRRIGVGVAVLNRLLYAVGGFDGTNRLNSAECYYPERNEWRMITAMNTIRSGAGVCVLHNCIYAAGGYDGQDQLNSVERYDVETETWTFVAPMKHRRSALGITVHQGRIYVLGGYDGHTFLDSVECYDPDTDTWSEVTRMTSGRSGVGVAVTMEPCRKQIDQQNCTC

In the case of `COC(=O)NC(=S)Nc1ccccc1NC(=S)NC(=O)OC`, the “Activation 100 nL” value is reported as 40%, the “Activation 200 nL” value is reported as 21% and the “100 nL (luminescence)” value [1] is reported as 712. For the same compound, the “200 nL (luminescence)” value [2] was 836.
For `CC(=O)OC[C@H]1O[C@@H]([S-])[C@H](OC(C)=O)[C@@H](OC(C)=O)[C@@H]1OC(C)=O.CCP(CC)CC.[Au+]` [auranofin, reference compound], the “Neh2-luc reporter activation” value was 200%.
With `ClC1=C(Cl)C2(Cl)C3C(Cl)C(Cl)CC3C1(Cl)C2(Cl)Cl` (stereo not drawn) [CHLORDANE] the activation at 16 µM was 107%, the activation at 32 µM was 135% and the “100 nL (luminescence)” value [1] was 1796. For the same compound, the “200 nL (luminescence)” value [2] was 3540.
`C=C(C)[C@H]1Cc2c(ccc3c2O[C@@H]2COc4cc(OC)c(OC)cc4[C@@H]2C3=O)O1` [ROTENONE] was tested, and the activation at 16 µM was 31%, the activation at 32 µM was 30% and the “100 nL (luminescence)” value [1] was 776. The “200 nL (luminescence)” value [2] was 1136.
`COC(=O)C1=C(C)NC(C)=C(C(=O)OC)C1c1ccccc1[N+](=O)[O-]` [NIFEDIPINE, reference compound] gave an activation at 16 µM of 35% and an activation at 32 µM of -10%.
In the case of `CC1(C)C(=O)CC[C@]2(C)[C@H]3CC[C@]4(C)C(=CC(=O)O[C@H]4c4ccoc4)[C@]3(C)[C@H](O)C[C@@H]12` [DIHYDRO-7-DESACETYLDEOXYGEDUNIN], the “Activation 100 nL” value is reported as 98%, the “Activation 200 nL” value is reported as 96% and the “100 nL (luminescence)” value [1] is reported as 1852. For the same compound, the “200 nL (luminescence)” value [2] was 1796.
With `Cc1coc2c1C(=O)C(=O)c1c-2ccc2c1CCCC2(C)C` [TANSHINONEIIA] the activation at 16 µM was 354%, the activation at 32 µM was 87% and the “100 nL (luminescence)” value [1] was 5092. The “200 nL (luminescence)” value [2] was 2452.
With `COc1cc([C@@H]2c3cc4c(cc3[C@H](OC(C)=O)[C@H]3COC(=O)[C@H]23)OCO4)cc(OC)c1OC` [PODOPHYLLOTOXINACETATE] the “Activation 100 nL” value was 40%, the “Activation 200 nL” value was 10% and the “100 nL (luminescence)” value [1] was 900. The “200 nL (luminescence)” value [2] was 668.
With `C=C1CC[C@H]2O[C@]2(C)CC[C@@H]2[C@@H]1CC2(C)C` [CARYLOPHYLLENEOXIDE] the “Activation 100 nL” value was 38%, the “Activation 200 nL” value was 2% and the “100 nL (luminescence)” value [1] was 874. For the same compound, the “200 nL (luminescence)” value [2] was 488.
For AVOCADYNOFURAN, the “Activation 100 nL” value was 25%, the “Activation 200 nL” value was 29% and the “100 nL (luminescence)” value [1] was 582. The “200 nL (luminescence)” value [2] was 1008.
In the case of `CC(C)=CCCC1(C)C=Cc2c(O)c3c(c(CC=C(C)C)c2O1)OC12C(=CCCC1C(C)(C)O[C@@]2(C/C=C(\C)C(=O)O)C(=O)O)C3=O` (stereo partly drawn) [GARCINOLICACID], the activation at 16 µM is reported as 29%, the activation at 32 µM is reported as 33% and the “100 nL (luminescence)” value [1] is reported as 800. The “200 nL (luminescence)” value [2] was 832.
In the case of `CC(=O)NCCc1c[nH]c2ccc(O)cc12` [ACETYLSEROTONIN], the activation at 16 µM is reported as 61%, the activation at 32 µM is reported as 31% and the “100 nL (luminescence)” value [3] is reported as 900. For the same compound, the “200 nL (luminescence)” value [4] was 1056.
`COc1cc(O)c2c(=O)cc(C)oc2c1CC=C(C)C` [HETEROPEUCENIN, METHYLETHER] was tested, and the “Activation 100 nL” value was 27%, the “Activation 200 nL” value was 45% and the “100 nL (luminescence)” value [1] was 772. The “200 nL (luminescence)” value [2] was 1020.
For `O=C(/C=C/c1ccccc1)c1ccc(O[C@@H]2O[C@H](CO)[C@@H](O)[C@H](O)[C@H]2O)cc1O` [2′,4′-DIHYDROXYCHALCONE4′-GLUCOSIDE], the “Activation 100 nL” value was 33%, the “Activation 200 nL” value was 121% and the “100 nL (luminescence)” value [1] was 1056. For the same compound, the “200 nL (luminescence)” value [2] was 2592.
In the case of `CC(=O)O[C@H]1CC[C@]2(C)[C@H]3CC[C@@]4(C)[C@H](c5ccoc5)OC(=O)[C@H]5O[C@]54[C@]3(C)[C@H](OC(C)=O)C[C@H]2C1(C)C` [3beta-ACETOXYDEOXODIHYDROGEDUNIN], the “Activation 100 nL” value is reported as 37%, the “Activation 200 nL” value is reported as 42% and the “100 nL (luminescence)” value [1] is reported as 924. For the same compound, the “200 nL (luminescence)” value [2] was 972.
Compound `O=C1C=CC(=O)c2c(O)cccc21` [JUGLONE] has an activation at 16 µM of 58% and an activation at 32 µM of 95%.
`Oc1ccc2c(c1)OCC1c3cc4c(cc3OC21)OCO4` (stereo not drawn) [MAACKIAIN] was tested, and the activation at 16 µM was 74%, the activation at 32 µM was 95% and the “100 nL (luminescence)” value [3] was 1492. For the same compound, the “200 nL (luminescence)” value [4] was 1772.
With `COc1ccc2c(c1)OCc1c-2oc2cc(OC)ccc12` [DEHYDROVARIABILIN] the activation at 16 µM was 86%, the activation at 32 µM was 39% and the “100 nL (luminescence)” value [1] was 1672. The “200 nL (luminescence)” value [2] was 916.
`COc1ccc2cc1Oc1ccc(cc1)C[C@H]1c3c(cc4c(c3Oc3cc5c(cc3OC)CCN(C)[C@@H]5C2)OCO4)CCN1C` [CEPHARANTHINE, reference compound] was tested, and the activation at 16 µM was 98%, the activation at 32 µM was 9% and the “100 nL (luminescence)” value [3] was 2348. For the same compound, the “200 nL (luminescence)” value [4] was 584.
For `CC(C)=CCc1c2c(c(O)c3c(=O)c(O)c(-c4ccccc4)oc13)C=CC(C)(C)O2` [SERICETIN], the activation at 16 µM was 263%, the activation at 32 µM was 20% and the “100 nL (luminescence)” value [1] was 2672. The “200 nL (luminescence)” value [2] was 800.
In the case of `COC(=O)c1cc(OC)c(=O)c2c(OC)c(OC)ccc2c1` [METHYL7-DESOXYPURPUROGALLIN-7-CARBOXYLATETRIMETHYLETHER], the “Activation 100 nL” value is reported as 516%, the “Activation 200 nL” value is reported as 105% and the “100 nL (luminescence)” value [1] is reported as 8248. The “200 nL (luminescence)” value [2] was 1932.
With `CCCCCCCCCCCCCCCc1ccco1` [AVOCADANOFURAN] the “Activation 100 nL” value was 59%, the “Activation 200 nL” value was 32% and the “100 nL (luminescence)” value [1] was 880. The “200 nL (luminescence)” value [2] was 1088.
In the case of `C=C1C[C@@H]2[C@H](CC[C@]3(C)C(=O)CC[C@@H]23)[C@@]2(C)C=CC(=O)C=C12` [EXEMESTANE, reference compound], the activation at 16 µM is reported as 261%, the activation at 32 µM is reported as 220% and the “100 nL (luminescence)” value [1] is reported as 4836. The “200 nL (luminescence)” value [2] was 4668.
With `COC(=O)Nc1nc2cc(C(=O)c3cccs3)ccc2[nH]1` [NOCODAZOLE, reference compound] the activation at 16 µM was 28%, the activation at 32 µM was 48% and the “100 nL (luminescence)” value [3] was 940. The “200 nL (luminescence)” value [4] was 980.
With `C=C(C)[C@@H]1CC[C@]2(C(=O)O)CC[C@]3(C)[C@H](CC[C@@H]4[C@@]5(C)CC[C@H](O)C(C)(C)[C@@H]5CC[C@]43C)[C@@H]12` [BETULINICACID] the activation at 16 µM was 54% and the activation at 32 µM was 85%.
With `CN1CCN(CC/C=C2/c3ccccc3Sc3ccc(S(=O)(=O)N(C)C)cc32)CC1` [THIOTHIXENE, reference compound] the activation at 16 µM was 55%, the activation at 32 µM was -26% and the “100 nL (luminescence)” value [1] was 1500. The “200 nL (luminescence)” value [2] was 68.
For `CCC(C)C(=O)OC1[C@@H]2CC3=C4CC(=O)O[C@@H](c5ccoc5)[C@]4(C)CCC3[C@@](C)(C2=O)[C@@H](CC(=O)OC)C1(C)C` (stereo partly drawn) [KHAYASIN], the activation at 16 µM was 90%, the activation at 32 µM was 105% and the “100 nL (luminescence)” value [1] was 1736. For the same compound, the “200 nL (luminescence)” value [2] was 1928.
In the case of `CC(=O)O[C@@H]1C[C@H]2C(C)(C)C(=O)CC[C@]2(C)[C@H]2CC[C@@]3(C)[C@H](c4ccoc4)OC(=O)[C@H]4O[C@]43[C@@]21C` [DIHYDROGEDUNIN], the activation at 16 µM is reported as 112%, the activation at 32 µM is reported as 114% and the “100 nL (luminescence)” value [1] is reported as 1866. For the same compound, the “200 nL (luminescence)” value [2] was 3068.
For `O=C(/C=C/c1ccc(O)cc1)c1ccc(O)cc1O` [ISOLIQUIRITIGENIN], the “100 nL (luminescence)” value was 4452, the “200 nL (luminescence)” value was 2364 and the activation at 16 µM was 268%. It also gave an activation at 32 µM of 134%.
In the case of `CC(=O)O[C@@H]1CC2C(C)(C)C=CC(=O)[C@]2(C)C2CC[C@@]3(C)[C@H](c4ccoc4)OC(=O)C4OC43[C@@]21C` (stereo partly drawn) [ISOGEDUNIN], the “Activation 100 nL” value is reported as 155%, the “Activation 200 nL” value is reported as 188% and the “100 nL (luminescence)” value [1] is reported as 2724. For the same compound, the “200 nL (luminescence)” value [2] was 3188.
